From patent publication US20140143910A1, “COMPOSITION THAT AUGMENTS PLANT DISEASE RESISTANCE AND/OR BRANCHING” (Riken, priority 2011, published 2014)

Tested on: PR1 gene
Experiment: PR1 gene expression by real-time PCR in rosette leaves of wild-type strain and bil3 mutant, treated or untreated with brassinolide
Format: in vivo, Arabidopsis thaliana
Conditions: BL-treated bil3 mutant (BIL3 gene-overexpressing), compared with the wild-type strain; FIG. 7
Protocol: Individuals of the wild-type strain and the bil3 mutant grown in the same way as in Example 1 were treated or untreated with brassinolide (BL), one type of BR, to prepare samples. Total RNA was extracted from the rosette leaf of each strain using RNeasy Plant Mini Kit (Qiagen N.V.). Next, cDNA was synthesized from the extracted total RNA using PrimeScript First-Strand cDNA Synthesis Kit (Takara Bio Inc.). Specific procedures for the total RNA extraction and the cDNA synthesis followed the protocol included in each kit. Subsequently, the expression of the PR1 gene was analyzed by real-time PCR with the synthesized cDNA as a template using primers PR1-RT-F represented by SEQ ID NO: 46 and PR1-RT-R represented by SEQ ID NO: 47, SYBR Premix EX Taq kit (Takara Bio Inc.) and a real-time PCR apparatus Thermal Cycler Dice (Takara Bio Inc.).

In the case of CC(C)[C@H](C)[C@@H](O)[C@H](O)[C@@H](C)[C@H]1CC[C@H]2[C@@H]3COC(=O)[C@H]4C[C@H](O)[C@H](O)C[C@]4(C)[C@H]3CC[C@]12C [BL, brassinolide], the “expression level of the PR1 gene, relative value with the BL-untreated wild-type strain as 1” value is reported as “approximately 40 times”.
